Test results as given in US5308608A, “Photosensitizing Diels-Alder porphyrin derivatives” (University of British Columbia, priority 1992, dated 1994).

System: MI-S
Assay: In vitro photosensitizing cytotoxicity (LD50) on cell line MI-S, 700-820 nm light for 30 minutes
Type: cell-based
Conditions: eosin-Y exclusion or tritium-labeled thymidine uptake
Experimental: Various invention compounds were assayed in vitro using either cell line P815 or MI-S as model systems to test their photosensitizing activity. In the standard protocol, various concentrations of test compounds were added to washed suspensions of cells from cultures of the target cells and the mixtures were then irradiated using 700-820 nm light for 30 minutes. The results were assayed by determining cytotoxicity using direct counting using eosin-Y exclusion, a standard procedure for differentiating living from dead cells.
In other determinations conducted as above, the cells recovered from light exposure were assayed for viability by incubating them for 18 hours in 10 mCi/ml tritium-labeled thymidine according to the standard procedure whereby thymidine incorporation is equated with viability. The cells were harvested and radioactivity uptake was measured by a scintillation counter.

Work on `CCc1c(C)c2cc3nc(cc4[nH]c(cc5nc(cc1[nH]2)C1(C)C5=CCC2C(=O)N(c5ccccc5)C(=O)C21)c(C)c4CC)C1(C)C3=CCC2C(=O)N(c3ccccc3)C(=O)C21` (stereo not shown) [Compound 12] yielded an LD50 of 100 ng.
